The source of these data is article PMC11396129, “Oxindole–benzothiazole hybrids as CDK2 inhibitors and anticancer agents: design, synthesis and biological evaluation” (BMC Chemistry, 2024).

One data set deals with T1, CDK2 (Homo sapiens, UniProt P24941).
T1 construct: purchased BPS Biosciences 79599
As to conditions: read-out: CDK2 inhibitory activity IC50; cited from earlier work.

The next data set relates to breast cancer. The arrangement: method as in PMID 16392802. Conditions: cited from earlier work.

The IC50 is the point on the concentration scale where inhibition reaches its midpoint. `O=C1Nc2ccccc2/C1=C1/Nc2ccccc2/C1=N\O` [indirubin-3′-oxime (IV), indirubin-3′-oxime]: the IC50 at CDK2 is 440 nM. `COc1ccc(-c2nc3cc(F)ccc3s2)cc1OC` [GW 610 (VII), 2-(3,4-dimethoxyphenyl)-5-fluorobenzothiazole]: the “growth inhibitory activity in vitro” value in the data set with breast cancer is on record as “sub-nanomolar”. The term melting point denotes the temperature of the solid-liquid transition. Take `O=C(COc1ccccc1-c1nc2ccccc2s1)NN=C1C(=O)Nc2ccc([N+](=O)[O-])cc21` [Compound 9d, 2-(2-(Benzo[d]thiazol-2-yl)phenoxy)-N′-(5-nitro-2-oxoindolin-3-ylidene)acetohydrazide]: the melting point was 275 to 277 °C.
